Tests used:
[1] = system: Enterococcus sp.; assay: in vitro antibacterial evaluation, MIC by broth dilution; format: cell-based; conditions: broth dilution, 18 hours at 35° C.; for MIC Enterococcus faecalis (ATCC 29212): strain ATCC 29212; for MIC Enterococcus faecalis (GC 2242): strain GC 2242; for MIC Enterococcus faecium (GC 2243): strain GC 2243; for MIC Enterococcus faecalis (GC 2691): strain GC 2691; for MIC Enterococcus faecalis (GC 3059): strain GC 3059; for MIC Enterococcus faecalis (GC 4552): strain GC 4552; for MIC Enterococcus faecalis (GC 4553): strain GC 4553; for MIC Enterococcus faecalis (GC 4554): strain GC 4554; for MIC Enterococcus faecium (GC 4556): strain GC 4556; for MIC Enterococcus faecium (GC 4557): strain GC 4557; for MIC Enterococcus avium (GC 4558): strain GC 4558; for MIC Enterococcus faecalis (GC 6189): strain GC 6189
How it was run: (§1)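 MIC, the lowest antibiotic concentration preventing growth, was read across 64-0.06 μg/mL with 5×10^5 CFU/mL inoculum. Method followed NCCLS M7-A2 broth dilution using Mueller-Hinton II; Gram-positive strains covered recent methicillin-, penicillin- and/or vancomycin-resistant clinical isolates.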

[2] = system: Streptococcus sp.; assay: as above; format: cell-based; conditions: broth dilution, 18 hours at 35° C.; for MIC Streptococcus pneumoniae (ATCC 6301): strain ATCC 6301; for MIC Streptococcus pneumoniae (GC 1894): strain GC 1894; for MIC Streptococcus pyogenes (GC 4563): strain GC 4563; for MIC Streptococcus agalactiae (GC 4564): strain GC 4564; for MIC Streptococcus pneumoniae (GC 4565): strain GC 4565
How it was run: as §1

[3] = system: Staphylococcus sp.; assay: as above; format: cell-based; conditions: broth dilution, 18 hours at 35° C.; for MIC Staphylococcus aureus (GC 1131): strain GC 1131
How it was run: as §1

[4] = system: Escherichia coli; assay: as above; format: cell-based
How it was run: as §1

[5] = system: Staphylococcus aureus-SMITH (GC 4543); assay: acute lethal infection in mice; format: in vivo; conditions: acute lethal infection, female CD-1 mice, intraperitoneal challenge, intravenous 30 min. after infection, 7 day survival
How it was run: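 Survival at 7 days, pooled from three independent tests, yields ED50 values. Treatment is intravenous, 30 min after ip infection of female CD-1 mice, using an inoculum lethal to untreated controls within 24-48 hr.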

COc1ccc(Oc2cccc(C3OCC4OC(OC5C(CO)OC(Oc6ccc(CC7NC(=O)C(C(C)c8ccccc8)NC(=O)CNC(=O)C(CO)NC(=O)C(C(O)C8CNC(=N)N8C8OC(CO)C(O)C(O)C8O)NC(=O)C(C(O)C8CNC(=N)N8)NC7=O)cc6)C(O)C5O)C(O)C(O)C4O3)c2)cc1 (stereo not drawn) [Example 180, Cyclo[glycyl-β-methylphenylalanyl-O-[4-O-[4,6-O-[3-(4-methoxyphenoxy)benzylidene]hexopyranosyl]hexopyranosyl]tyrosyl-3-(2-iminoimidazolidin-4-yl)seryl-3-(3-hexopyranosyl-2-iminoimidazolidin-4-yl)serylseryl]]
0.05 mg/kg: median effective dose (ED50), Staphylococcus aureus-SMITH (GC 4543) [5]
<0.06 µg/mL: MIC Streptococcus pneumoniae (ATCC 6301) ([2]; inoculum 5×10^5 CFU/mL) | MIC Streptococcus pneumoniae (GC 1894) ([2]; inoculum 5×10^5 CFU/mL) | MIC Streptococcus pyogenes (GC 4563) ([2]; inoculum 5×10^5 CFU/mL) | MIC Streptococcus agalactiae (GC 4564) ([2]; inoculum 5×10^5 CFU/mL) | MIC Streptococcus pneumoniae (GC 4565) ([2]; inoculum 5×10^5 CFU/mL) | MIC Streptococcus pneumoniae (ATCC 6301) [2] | MIC Streptococcus pneumoniae (GC 1894) [2] | MIC Streptococcus pyogenes (GC 4563) [2] | MIC Streptococcus agalactiae (GC 4564) [2] | MIC Streptococcus pneumoniae (GC 4565) [2]
0.5 µg/mL: MIC Coagulase Negative Staphylococcus (GC 6257) ([3]; strain GC 6257)
4 µg/mL: MIC Enterococcus faecalis (ATCC 29212) ([1]; inoculum 5×10^5 CFU/mL) | MIC Enterococcus faecalis (GC 2242) ([1]; inoculum 5×10^5 CFU/mL) | MIC Enterococcus faecalis (ATCC 29212) [1] | MIC Enterococcus faecalis (GC 2242) [1]
2 µg/mL: MIC Enterococcus faecium (GC 2243) ([1]; inoculum 5×10^5 CFU/mL) | MIC Enterococcus faecalis (GC 2691) ([1]; inoculum 5×10^5 CFU/mL) | MIC Enterococcus faecalis (GC 3059) ([1]; inoculum 5×10^5 CFU/mL) | MIC Enterococcus faecalis (GC 4552) ([1]; inoculum 5×10^5 CFU/mL) | MIC Enterococcus faecalis (GC 4553) ([1]; inoculum 5×10^5 CFU/mL) | MIC Enterococcus faecalis (GC 4554) ([1]; inoculum 5×10^5 CFU/mL) | MIC Enterococcus faecium (GC 4556) ([1]; inoculum 5×10^5 CFU/mL) | MIC Enterococcus faecium (GC 4557) ([1]; inoculum 5×10^5 CFU/mL) | MIC Enterococcus avium (GC 4558) ([1]; inoculum 5×10^5 CFU/mL) | MIC Enterococcus faecalis (GC 6189) ([1]; inoculum 5×10^5 CFU/mL) | MIC Enterococcus faecium (GC 2243) [1] | MIC Enterococcus faecalis (GC 2691) [1] | MIC Enterococcus faecalis (GC 3059) [1] | MIC Enterococcus faecalis (GC 4552) [1] | MIC Enterococcus faecalis (GC 4553) [1] | MIC Enterococcus faecalis (GC 4554) [1] | MIC Enterococcus faecium (GC 4556) [1] | MIC Enterococcus faecium (GC 4557) [1] | MIC Enterococcus avium (GC 4558) [1] | MIC Enterococcus faecalis (GC 6189) [1] | MIC Staphylococcus aureus (GC 1131) ([3]; inoculum 5×10^5 CFU/mL) | MIC Staphylococcus aureus (ATCC 29213) ([3]; strain ATCC 29213) | MIC Staphylococcus aureus (GC 1131) [3] | MIC Staphylococcus aureus (GC 3053) ([3]; strain GC 3053) | MIC Staphylococcus aureus (GC 4541) ([3]; strain GC 4541) | MIC Staphylococcus aureus (GC 4542) ([3]; strain GC 4542) | MIC Staphylococcus aureus (GC 4544) ([3]; strain GC 4544) | MIC Staphylococcus aureus (GC 4545) ([3]; strain GC 4545) | MIC Staphylococcus aureus-SMITH (GC 4543) ([3]; strain GC 4543) | MIC Staphylococcus haemolyticus (GC 4546) ([3]; strain GC 4546) | MIC Coagulase Negative Staphylococcus (GC 4547) ([3]; strain GC 4547) | MIC Escherichia coli (GC 4560) ([4]; strain GC 4560, 18 hours at 35° C.)
64 µg/mL: MIC Escherichia coli (GC 4559) ([4]; strain GC 4559, 18 hours at 35° C.)
>64 µg/mL: MIC Escherichia coli (ATCC 25922) ([4]; strain ATCC 25922, 18 hours at 35° C.)
1 µg/mL: MIC Staphylococcus aureus (GC 3051) ([3]; strain GC 3051) | MIC Coagulase Negative Staphylococcus (GC 4548) ([3]; strain GC 4548) | MIC Coagulase Negative Staphylococcus (GC 4549) ([3]; strain GC 4549) | MIC Coagulase Negative Staphylococcus (GC 4551) ([3]; strain GC 4551)

Source: US6914045B2, “Glycopeptide antibiotics” (Wyeth Holdings Corporation, priority 2001, dated 2005)
